This passage reports EC50 results from patent publication US9920010B2, “CXCR7 receptor modulators” (IDORSIA PHARMACEUTICALS LTD, priority 2013, dated 2018).

One may read the EC50 as the concentration at which the effect is half-maximal. Read a low EC50 as higher potency in that assay.

For the assay, the target named is T1, CXCR7 (Homo sapiens, UniProt P25106).
T1 construct: host or cells: CHO-K1 (PathHunter CHO-K1 CXCR7 b-arrestin cell line, stably transfected)
The assay can be described thus: PathHunter CHO-K1 CXCR7 b-arrestin recruitment assay (CXCR7 agonistic activity). The note with it: PathHunter CHO-K1 CXCR7 b-arrestin cell line. Format: cell-based. Put shortly: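 Stable CHO-K1 line with C-terminally ProLink-tagged CXCR7 and β-arrestin 2–EA fusion; β-arrestin recruitment restores β-gal activity, read by chemiluminescence after 1 h RT detection. Cells seeded 24 h, starved in OPTIMEM 3–4 h, exposed to compounds 90 min at 37 °C in HBSS/HEPES/BSA. Geometric-mean EC50 from repeated measurements.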

T1 sequence (P25106 whole entry): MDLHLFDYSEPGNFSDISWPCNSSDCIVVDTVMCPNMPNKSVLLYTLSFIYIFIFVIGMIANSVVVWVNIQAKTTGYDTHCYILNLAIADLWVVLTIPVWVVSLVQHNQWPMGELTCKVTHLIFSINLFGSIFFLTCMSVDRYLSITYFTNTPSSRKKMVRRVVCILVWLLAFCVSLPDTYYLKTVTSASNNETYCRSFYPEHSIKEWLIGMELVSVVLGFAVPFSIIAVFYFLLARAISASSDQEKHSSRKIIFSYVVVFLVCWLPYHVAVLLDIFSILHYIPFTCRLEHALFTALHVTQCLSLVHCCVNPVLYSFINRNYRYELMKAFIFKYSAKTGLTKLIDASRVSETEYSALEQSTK
T1 sequence (P32121 whole entry partner): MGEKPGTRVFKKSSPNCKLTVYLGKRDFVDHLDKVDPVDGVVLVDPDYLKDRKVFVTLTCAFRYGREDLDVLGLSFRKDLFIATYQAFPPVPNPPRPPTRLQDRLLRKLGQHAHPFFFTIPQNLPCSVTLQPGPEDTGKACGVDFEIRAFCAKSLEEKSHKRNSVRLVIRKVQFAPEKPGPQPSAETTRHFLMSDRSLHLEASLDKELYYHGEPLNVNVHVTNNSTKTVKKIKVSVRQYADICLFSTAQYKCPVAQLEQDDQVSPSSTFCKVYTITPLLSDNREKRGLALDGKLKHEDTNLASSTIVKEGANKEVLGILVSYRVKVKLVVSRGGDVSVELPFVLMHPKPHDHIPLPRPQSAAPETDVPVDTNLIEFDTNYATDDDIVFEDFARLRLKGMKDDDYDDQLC

In turn, `CN(C)CCN(Cc1ccccc1)C(=O)CNc1cccc2c1CCN(CCc1ccccc1)C2` [compound 126] came in with a half-maximal effective concentration (EC50) of 249 nM.

Consider `O=C(CNc1cccc2c1CCN(CC1CC1)C2)N(Cc1ccccc1C(F)(F)F)CC(O)C(F)(F)F` (racemic) [Example 242, rac-2-(2-Cyclopropylmethyl-1,2,3,4-tetrahydro-isoquinolin-5-ylamino)-N-(3,3,3-trifluoro-2-hydroxy-propyl)-N-(2-trifluoromethyl-benzyl)-acetamide], for which the EC50 amounted to 24 nM. This EC50 is about 10-fold lower than that of the compound before.

`CCCOC(=O)N1CCc2c(cccc2NCC(=O)N(CCNC)Cc2ncccc2C(F)(F)F)C1` [compound 423] registered an EC50 of 79 nM. This EC50 is about 3.3-fold higher than that of the compound before. The value for `CN(C)CCN(Cc1ccc(OC(F)(F)F)cc1)C(=O)CNc1cccc2c1CCN(CC1CC1)C2` [Example 228, 2-(2-Cyclopropylmethyl-1,2,3,4-tetrahydro-isoquinolin-5-ylamino)-N-(2-dimethylamino-ethyl)-N-(4-trifluoromethoxy-benzyl)-acetamide] was 117 nM.

`CNCCN(Cc1ncccc1C(F)(F)F)C(=O)CNc1cccc2c1CCN(C(=O)OCC(C)C)C2` [compound 426]: the EC50 came to 74 nM. `CCN1CCc2cccc(NCC(=O)N(Cc3ccccc3)C3CCNCC3)c2C1` [compound 377] registered an EC50 of 276 nM. The value for `CCC(=O)N1CCc2c(cccc2NCC(=O)N(CCN(C)C)Cc2cccc(C)c2)C1` [Example 14, N-(2-Dimethylamino-ethyl)-N-(3-methyl-benzyl)-2-(2-propionyl-1,2,3,4-tetrahydro-isoquinolin-5-ylamino)-acetamide] was 53 nM. The value for `CCN1CCc2c(cccc2NCC(=O)N(CCN(C)C)Cc2ccccc2C(F)(F)F)C1` [compound 135, N-(2-Dimethylamino-ethyl)-2-(2-ethyl-1,2,3,4-tetrahydro-isoquinolin-5-ylamino)-N-(2-trifluoromethyl-benzyl)-acetamide] was 9 nM. The value for `CNCCN(Cc1ccccc1C(F)(F)F)C(=O)CNc1cccc2c1CCN(CC1CC1)C2` [Example 179, 2-(2-Cyclopropylmethyl-1,2,3,4-tetrahydro-isoquinolin-5-ylamino)-N-(2-methylamino-ethyl)-N-(2-trifluoromethyl-benzyl)-acetamide] was 3 nM.

Compound `CC(C)CN1CCc2c(cccc2NCC(=O)N(CCN(C)C)Cc2ccccc2)C1` [compound 112, N-Benzyl-N-(2-dimethylamino-ethyl)-2-(2-isobutyl-1,2,3,4-tetrahydro-isoquinolin-5-ylamino)-acetamide] showed an EC50 of 40 nM.

For the compound `CN(C)CCN(Cc1ccccc1)C(=O)CNc1cccc2c1CCN(C(=O)OCC(C)(C)C)C2` [compound 127], the EC50 worked out at 395 nM. The value for `O=C(CNc1cccc2c1CCN(CC1CC1)C2)N(CCNCC(F)(F)F)Cc1ccccc1C(F)(F)F` [Example 434, 2-(2-Cyclopropylmethyl-1,2,3,4-tetrahydro-isoquinolin-5-ylamino)-N-[2-(2,2,2-trifluoro-ethylamino)-ethyl]-N-(2-trifluoromethyl-benzyl)-acetamide] was 20 nM; that for `CNCCN(Cc1ccccc1C(F)(F)F)C(=O)CNc1cccc2c1CCN(C(=O)NC(C)C)C2` [compound 404] was 60 nM; that for `CCC(=O)N1CCc2c(cccc2NCC(=O)N(CCC(C)C)Cc2ccccc2)C1` [Example 12, N-Benzyl-N-(3-methyl-butyl)-2-(2-propionyl-1,2,3,4-tetrahydro-isoquinolin-5-ylamino)-acetamide] was 194 nM.

`CC(C)CC(=O)N1CCc2c(cccc2NCC(=O)N(CCN(C)C)Cc2ccccc2)C1` [compound 119] returned an EC50 of 87 nM. The figure for `CN(C)CCN(Cc1ccccc1C(F)(F)F)C(=O)CCc1cccc2c1CCN(C(=O)OC(C)(C)C)C2` [Example 99, 5-{2-[(2-Dimethylamino-ethyl)-(2-trifluoromethyl-benzyl)-carbamoyl]-ethyl}-3,4-dihydro-1H-isoquinoline-2-carboxylic acid tert-butyl ester] is 177 nM.
